# Data published in patent US7335663B2, “Heteroaryl compounds which inhibit leukocyte adhesion mediated by α4 integrins” (Elan Pharmaceuticals, Inc., priority 2002, dated 2008).
# Assays:
# [1] = Cassette dosing and serum analysis for determination of oral bioavailability; type: in vivo, Sprague Dawley (SD) rats; details: rats, oral cassette of 6 compounds, total dose 10 mg/kg, plasma samples at 4, 8 and 12 h
# Protocol: The oral bioavailability was screened by dosing rats with a cassette, i.e. mixture of 6 compounds per dosing solution. The cassette included 5 test articles and a standard compound, for a total dose of 10 mg/kg. Each compound/test article was converted to the sodium salt with equimolar 1 N NaOH and dissolved in water at 2 mg/mL. The cassette was prepared by mixing equal volumes of each of the six solutions. The cassette dosing solution was mixed well and then the pH was adjusted to 7.5-9. The dosing solution was prepared the day before the study and stirred overnight at room temperature.
# Male Sprague Dawley (SD) rats from Charles River Laboratories, 6-8 weeks old were used in this screen. Rats were quarantined for at least one day and had continuous access to food and water. On the night before the administration of the cassette, the rats were fasted for approximately 16 h.
# Four SD rats were assigned in each cassette. A single dose of the dosing solution was administered orally to each rat. The dosing volume (5 mL/kg) and time were recorded and rats were fed 2 h after dosing.
# Blood samples were collected via cardiac puncture at the following time points: 4 h, 8 h and 12 h. Immediately prior to blood collection, rats were anesthetized with CO2 gas within 10-20 seconds. After the 12-hour samples were collected, the rats were euthanized via CO2 asphyxiation followed by cervical dislocation.
# Blood samples were kept in heparinized microtainer tubes under sub-ambient temperature (4° C.) before they were processed. Blood samples were centrifuged (10000 rpm for 5 minutes) and plasma samples were removed and stored in a −20° C. freezer until analyzed for drug levels. Drug levels in the plasma were analyzed using the following protocol for direct plasma precipitation.
# The in vivo plasma samples were prepared in a 1.5 mL 96-well plate, by adding, in order, 100 μL of the test plasma, 150 μL of methanol, followed by vortexing for 10-20 seconds. 150 μL of 0.05 ng/μL of an Internal Standard in acetonitrile were added and vortexed for 30 seconds.
# The standard curve samples were prepared in a 1.5 mL 96-well plate, by adding, in order, 100 μL of control mouse plasma, followed by 150 μL of methanol and vortexing for 10-20 seconds. 150 μL of 0.05 ng/μL of an Internal Standard in acetonitrile were added and vortexed for 30 seconds. The samples were spiked with 0-200 ng (10 concentrations) of the compound of interest in 50% methanol to obtain a standard curve range of 0.5 ng/mL-2,000 ng/mL. Again, the sample was vortexed for 30 seconds.
# The samples were then spun for 20-30 minutes at 3000 rpm in an Eppendorf microfuge before 80-90% of supernatant was transferred into a clean 96-well plate. The organic solvent was then evaporated until the samples were dry (under N2 at 40° C./30-60 min (ZymarkTurbovap)).
# The residue was then dissolved in 200-600 L mobile phase (50% CH3OH/0.1% TFA). LC/MS/MS was then run using a PE-Sciex API-3000 triple quadurpole mass spectrometer (SN0749707), Perkin-Elmer, Series200auto-sampler, and shimadzu 10A pump. Acquisition was done with PE-Sciex Analyst (v1.1) and data analysis and quantification were accomplished using PE-Sciex Analyst (v1.1). A 5-50 μL sample volume was injected onto a reverse phase ThermoHypersil DASH-18 column (Keystone 2.0×20 mm, 5 μm, PN: 8823025-701) using a mobile phase of 25% CH3OH, 0.1% TFA-100% CH3OH, 0.1% TFA. The run time was about 8 minutes at a flow rate of about 300 μL/minutes.
# The Area Under the Curve (AUC) was calculated using the linear trapezoidal rule from t=0 to the last sampling time tx (see Handbook of Basic Pharmacokinetics, Wolfgang A. Ritschel and Gregory L. Kearns, 5th ed, 1999). AUC^0−+tx=S((Cn+Cn+1)/2))·(tn+1−tn)[(μg/mL)h]
# In the case of the cassette dosing paradigm, samples at 4, 8 and 12 h post extravascular dosing, the AUC was calculated from t=0 to t=12 h.
# [2] = molecular target: T1, α4β1 Integrin (Homo sapiens, UniProt P05556+P13612); assay: α4β1 Integrin Adhesion Assay: Jurkat cell adhesion to human plasma fibronectin; type: cell-based; details: Jurkat cells
# T1 construct: endogenous in cells; host or cells: Jurkat cells
# Protocol: 96 well plates (Costar 3590 EIA plates) were coated with human fibronectin (Gibco/BRL, cat #33016-023) at a concentration of 10 μg/mL overnight at 4° C. The plates were then blocked with a solution of bovine serum albumin (BSA; 0.3%) in saline. Jurkat™ cells (maintained in log phase growth) were labeled with Calcein AM according to the manufacturer's instructions, and suspended at a concentration of 2×10^6 cells/mL in Hepes/Saline/BSA. The cells were then exposed to test and control compounds for 30 minutes at room temperature before transfer to individual wells of the fibronectin coated plate. Adhesion was allowed to occur for 35 minutes at 37° C. The wells were then washed by gentle aspiration and pipetting with fresh saline. Fluorescence associated with the remaining adherent cells was quantified using a fluorescence plate reader at EX 485/EM 530.
# Cell cultures were prepared by first splitting the stationary phase Jurkat™ cells at 1:10 on day one, and 1:2 on day two to perform assay on day 3. The cells split 1:10 on day one were split 1:4 on day 3 for a day 4 assay.
# The assay plates were prepared by first making a working solution of Gibco/BRL Human Fibronectin (cat # 33016-023) in PBS++, at 10 μg/mL.
# A Costar 3590 EIA plate was then coated with 50 μL/well for 2 hours at room temperature (thought it can also be left overnight at 4° C). Finally the plate was asperated and blocked with Hepes/Saline Buffer, 100 μL/well, for 1 hour at RT followed by washing three times with 150 μL of PBS++.
# Compound dilutions were accomplished by preparing 1:3 serial dilutions of compounds as follows. For each plate (4 compounds/plate) 600 μL were added to 4 Bio-Rad Titertubes in a Titertube rack. Enough compound was added to each appropriate tube to give a 2× concentration using methods well known in the art. Using Falcon Flexiplates, 100 μL of Hepes/Saline buffer or human serum were added to rows B through G. A multi-channel pipetter set to 180 μL was used to with four tips spaced evenly the pipetter. Each set of four tubes was mixed 5 times and 180 μL, of 2× compound was transferred to the first column of each compound dilution in Row B, leaving Row A empty. 180 μL were added to the other wells in Row A. Serial dilutions were performed down the plate by transferring 50 μL to the next dilution and mixing 5 times, changing tips each time after mixing. Dilutions were stopped at Row F. Row G had no compound present.
# A 20 μg/mL solution in Hepes/Saline buffer or human serum, of 21/6 antibody was the positive control and was set aside in a reagent trough to add to cell suspension plate.
# The cell staining was accomplished by first harvesting the log-phase Jurkat™ cells by centrifugation in 50 mL tubes (1100 rpm for 5 minutes). The cells were resuspended in 50 mL PBS++, spun, and resuspend in 20 mL PBS++. The cells were stained by adding 20 μL of Calcein AM for 30 minutes R.T. The volume was brought to 50 mL with Hepes/Saline buffer and the cells were counted, spun, and resuspend to 2×10^6 cells/mL in Hepes/Saline buffer or human serum.
# The compounds were incubated using the following procedure. In a new flexiplate, 65 μL of stained cells were added to Rows B through H. Then 65 μL of 2× compounds were added to the appropriate rows following the plate setup and mixed 3×. 65 μL of 2×-21/6 antibody were added to Row H and mixed 3×. Finally the plate was incubated at room temperature for 30 minutes.
# Fibronectin adhesion was measured using a fluorescent plate reader at EX 485/EM 530 after the following work up procedure. After incubation, the cells were mixed 3× and 100 μL were transferred to the Fibronectin coated plates and incubated at 37° C. for about 35 minutes. Each plate was washed, row by row, by gently pipetting 100 μL of R.T. PBS++ down the sides of the wells and turning the plate 90 degrees to aspirate. This procedure was repeated for a total of 3 washes. Each well was filled with 100 μL after washing by pipetting down the side of the well. […]
# T1 sequence (P13612 34-1032): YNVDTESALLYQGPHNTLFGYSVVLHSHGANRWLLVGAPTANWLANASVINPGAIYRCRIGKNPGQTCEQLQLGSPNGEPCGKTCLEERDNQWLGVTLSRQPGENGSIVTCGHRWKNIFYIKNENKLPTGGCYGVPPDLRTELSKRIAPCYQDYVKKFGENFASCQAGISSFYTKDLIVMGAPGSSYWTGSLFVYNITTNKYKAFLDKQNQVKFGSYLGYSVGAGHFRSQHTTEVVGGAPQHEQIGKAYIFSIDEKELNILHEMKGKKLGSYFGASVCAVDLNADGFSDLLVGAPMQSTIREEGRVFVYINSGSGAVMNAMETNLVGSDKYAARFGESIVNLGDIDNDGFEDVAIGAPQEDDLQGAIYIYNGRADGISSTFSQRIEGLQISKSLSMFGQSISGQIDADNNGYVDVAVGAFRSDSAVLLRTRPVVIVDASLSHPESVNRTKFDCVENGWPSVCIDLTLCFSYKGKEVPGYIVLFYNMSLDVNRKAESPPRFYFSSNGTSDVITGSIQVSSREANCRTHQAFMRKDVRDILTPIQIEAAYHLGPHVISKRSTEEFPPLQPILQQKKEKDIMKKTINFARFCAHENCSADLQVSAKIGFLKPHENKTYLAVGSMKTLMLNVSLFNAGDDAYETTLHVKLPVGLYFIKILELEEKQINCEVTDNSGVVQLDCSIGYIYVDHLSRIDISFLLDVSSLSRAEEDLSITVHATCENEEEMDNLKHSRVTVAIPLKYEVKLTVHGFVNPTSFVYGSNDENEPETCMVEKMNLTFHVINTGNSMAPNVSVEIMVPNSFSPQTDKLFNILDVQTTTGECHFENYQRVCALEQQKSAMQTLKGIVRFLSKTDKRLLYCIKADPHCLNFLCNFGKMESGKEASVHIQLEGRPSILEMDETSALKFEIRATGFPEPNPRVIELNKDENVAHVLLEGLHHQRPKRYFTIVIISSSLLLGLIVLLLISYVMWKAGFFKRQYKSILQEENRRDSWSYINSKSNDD
# T1 sequence (P05556 21-798): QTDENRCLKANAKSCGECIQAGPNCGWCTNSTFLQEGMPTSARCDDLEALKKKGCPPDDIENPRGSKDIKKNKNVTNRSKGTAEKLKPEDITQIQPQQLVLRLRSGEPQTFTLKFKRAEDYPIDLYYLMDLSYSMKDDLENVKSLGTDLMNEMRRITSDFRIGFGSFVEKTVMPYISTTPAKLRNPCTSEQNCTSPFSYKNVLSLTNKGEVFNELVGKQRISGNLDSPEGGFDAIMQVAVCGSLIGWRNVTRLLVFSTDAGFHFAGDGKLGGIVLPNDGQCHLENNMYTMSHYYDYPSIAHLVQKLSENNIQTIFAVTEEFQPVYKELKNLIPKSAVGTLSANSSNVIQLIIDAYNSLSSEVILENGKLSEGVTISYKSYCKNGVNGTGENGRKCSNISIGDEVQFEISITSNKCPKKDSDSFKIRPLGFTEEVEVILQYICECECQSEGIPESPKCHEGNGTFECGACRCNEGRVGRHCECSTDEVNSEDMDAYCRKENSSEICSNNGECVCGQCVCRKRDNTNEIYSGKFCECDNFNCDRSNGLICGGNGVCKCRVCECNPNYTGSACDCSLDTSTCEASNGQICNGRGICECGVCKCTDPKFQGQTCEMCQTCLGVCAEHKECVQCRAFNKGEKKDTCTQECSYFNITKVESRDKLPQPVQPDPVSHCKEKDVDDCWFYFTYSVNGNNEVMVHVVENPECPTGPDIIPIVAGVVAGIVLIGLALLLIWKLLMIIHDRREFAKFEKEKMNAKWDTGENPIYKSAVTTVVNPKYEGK
Substance,AUC (average AUC 0-12 h) [1],"IC50, Cell Adhesion to Human Plasma Fibronectin (With human serum) [2]","IC50, Cell Adhesion to Human Plasma Fibronectin (Without the human serum) [2]"
"2-{2-diethylamino-5-[(2,3-difluorobenzenesulfonyl)ethylamino]pyrimidin-4-ylamino}-3-(4-dimethylcarbamoyloxyphenyl)propionic acid [Example 26]",0.3392 (μg/mL)h,0.01848 µg/mL,0.001 µg/mL
"2-{2-diethylamino-5-[(2,4-difluorobenzenesulfonyl)ethylamino]pyrimidin-4-ylamino}-3-(4-dimethylcarbamoyloxyphenyl)propionic acid [Example 18]",0.2578 (μg/mL)h,0.025 µg/mL,0.002 µg/mL
"2-{2-diethylamino-5-[(2,4-difluorobenzenesulfonyl)methylamino]pyrimidin-4-ylamino}-3-(4-dimethylcarbamoyloxyphenyl)propionic acid [Example 17]",1.0075 (μg/mL)h,0.024 µg/mL,0.001 µg/mL
"2-{2-diethylamino-5-[(2,5-difluorobenzenesulfonyl)methylamino]pyrimidin-4-ylamino}-3-(4-dimethylcarbamoyloxyphenyl)propionic acid [Example 25]",0.4559 (μg/mL)h,6.72 µg/mL,0.006 µg/mL
"2-{2-diethylamino-5-[(3,4-dichlorobenzenesulfonyl)methylamino]pyrimidin-4-ylamino}-3-(4-dimethylcarbamoyloxyphenyl)propionic acid [Example 4]",0.5965 (μg/mL)h,0.4 µg/mL,0.004 µg/mL
"2-{2-diethylamino-5-[(3,4-difluorobenzenesulfonyl)ethylamino]pyrimidin-4-ylamino}-3-(4-dimethylcarbamoyloxyphenyl)propionic acid [Example 12]",0.8447 (μg/mL)h,0.06 µg/mL,0.003 µg/mL
"2-{2-diethylamino-5-[(3,5-dichlorobenzenesulfonyl)ethylamino]pyrimidin-4-ylamino}-3-(4-dimethylcarbamoyloxyphenyl)propionic acid [Example 20]",0.0536 (μg/mL)h,0.07751 µg/mL,0.005114 µg/mL
"2-{2-diethylamino-5-[(3,5-dichlorobenzenesulfonyl)methylamino]pyrimidin-4-ylamino}-3-(4-dimethylcarbamoyloxyphenyl)propionic acid [Example 19]",0.0697 (μg/mL)h,0.08535 µg/mL,0.003393 µg/mL
"2-{2-diethylamino-5-[(3,5-difluorobenzenesulfonyl)ethylamino]pyrimidin-4-ylamino}-3-(4-dimethylcarbamoyloxyphenyl)propionic acid [Example 16]",0.1721 (μg/mL)h,0.06707 µg/mL,0.001035 µg/mL
"2-{2-diethylamino-5-[(3,5-difluorobenzenesulfonyl)methylamino]pyrimidin-4-ylamino}-3-(4-dimethylcarbamoyloxyphenyl)propionic acid [Example 15]",0.2098 (μg/mL)h,0.1243 µg/mL,0.000915 µg/mL
2-{2-diethylamino-5-[(3-fluorobenzenesulfonyl)methylamino]pyrimidin-4-ylamino}-3-(4-dimethylcarbamoyloxyphenyl)propionic acid [Example 7],0.717 (μg/mL)h,0.5869 µg/mL,0.000821 µg/mL
